In US4699926A, “Compounds useful in treating sickle cell anemia” (Merck & Co., Inc., priority 1986, dated 1987):
Counter-ions that a name gives are not always drawn.

Experiments:
[1] = target: T1, sickle hemoglobin (HbS) (Homo sapiens, UniProt P68871+P69905, E7V); assay: Solubility assay (Csat assay): solubility of deoxygenated sickle hemoglobin in the presence of drug; format: biochemical
T1 construct: from tissue
Procedure: One major assay for evaluating antisickling agents involves measuring their effect on increasing the concentration at which sickle hemoglobin forms a gel. This is called the solubility or Csat assay.
The solubility assay (Csat assay) measures the ability of a compound to increase solubility of sickle hemoglobin (HbS).
In order to confirm the effectiveness of these compounds in reducing the effect of sickle cell anemia, tests were performed. The materials were tested according to the assay (Csat) developed by Hofrichter et al. (J. Hofrichter, P.D. Ross and W. A. Eaton Proc. Natl. Acad. Sci. USA, 73 30-35, 1976). This assay involves deoxygenation of concentrated sickle hemoglobin with dithionite in the presence of different concentrations of the drugs being tested Samples were then sealed in quartz epr tubes under anaerobic conditions and spun at about 150,000 × g for about 21/2 hours at about 35° C. in an ultracentrifuge. This procedure pellets the polymerized HbS (sickle hemoglobin) to the bottom of the tubes and the supernatant (soluble HbS) was measured in the laboratory as the cyanmethemoglobin derivative. […] Activity is reported as a ratio of the HbS solubility with the particular drug to HbS solubility with no drug i.e. control. The higher the ratio the greater degree of activity of the drug. The numbers in parenthesis are % increase in the solubility of HbS; again the higher the number, the greater the activity of the drug. The results ofthe compound of Example 9, is shown as a representative example of the compounds of this invention.

[2] = test system: HbS; assay: Chromatographic separation: tight covalent binding between HbS and the agent; parameters: species or system human
[3] = Tests of transport across erythrocyte membranes; format: in vitro ADME, human; conditions: red blood cell membrane

Row | SMILES | activation at 3000 µM ([1]; 3 mM, read-out: % increase in Solubility (of HbS)) | fold induction at 3000 µM ([1]; 3 mM, read-out: Ratio of the HbS Solubility with the Drug Compared to HbS Solubility Without Drug) | activation at 5000 µM ([1]; 5 mM, read-out: % increase in Solubility (of HbS)) | fold induction at 5000 µM ([1]; 5 mM, read-out: Ratio of the HbS Solubility with the Drug Compared to HbS Solubility Without Drug) | activation at 7000 µM ([1]; 7 mM, read-out: % increase in Solubility (of HbS)) | fold induction at 7000 µM ([1]; 7 mM, read-out: Ratio of the HbS Solubility with the Drug Compared to HbS Solubility Without Drug) | activation at 9000 µM ([1]; 9 mM, read-out: % increase in Solubility (of HbS)) | fold induction at 9000 µM ([1]; 9 mM, read-out: Ratio of the HbS Solubility with the Drug Compared to HbS Solubility Without Drug) | solubility ratio compared with other antisickling agents (in words) ([1]; low concentrations (5 mM), versus dichlorobenzyloxyacetic and p-bromobenzyloxyacetic acids) | covalent binding between the HbS and the therapeutic agent (in words) [2] | transport across erythrocyte membranes (in words) [3]
1 | C=C(CC)C(=O)c1ccc(OCC(=O)NCC(=O)O)c(Cl)c1Cl [Example 9, N-{[2,3-Dichloro-4-(2-methylenebutyryl)phenoxy]-acetyl}glycine] | 27% | 1.11 | 36% | 1.15 | 56% | 1.22 | 82% | 1.33 |  |  | 
2 | C=C(CC)C(=O)c1ccc(OCC(=O)NCC(=O)O)c(Cl)c1Cl [sodium salt of N-{([2,3-dichloro-4-(2-methylenebutyryl)-phenoxy]acetyl)}glycine] |  |  |  |  |  |  |  |  | higher solubility ratio than other antisickling agents, such as, dichlorobenzyloxyacetic and p-bromobenzyloxyacetic acids | desired tight covalent binding between the HbS and the therapeutic agent had occurred | confirmed the ability of the agent to cross the red blood cell membrane and react with hemoglobin
